Results as given in patent US20190328755A1, “METHODS OF TREATING COMPLEX REGIONAL PAIN SYNDROME (CRPS) OR SYMPTOMS COMPRISING ADMINISTRATION OF […]” (GRUNENTHAL GMBH, priority 2018, published 2019).

Tested on: subjects with CRPS
Assay: Open-label single-arm Phase III trial of intravenous neridronic acid, average pain intensity (11-point NRS)
Type: in vivo, human
Details: subjects with CRPS duration >2 years; 400 mg i.v. cumulative, 4 infusions of 240 min; interim look
Experimental: A multi-site, open-label, single-arm, Phase III safety trial of intravenous neridronic acid at a cumulative dose of 400 mg was conducted in subjects with CRPS to investigate the safety and tolerability of intravenous neridronic acid in subjects with CRPS.
The trial product was supplied in glass vials, each containing 111.2 mg sodium neridronate hemihydrate (equivalent to 100 mg neridronic acid) in a total volume of 8 mL. For each infusion, before use, the trial product was diluted in sterile normal saline (0.9% NaCl, e.g., United States Pharmacopeia (USP) grade saline for injection) to a volume of approximately 500 mL and administered by slow intravenous infusion (240 minutes [maximum 260 minutes]) at day 1, day 4, day 7 and day 10, resulting in a total dose of 400 mg neridronic acid.
In addition, the trial provided supportive data on efficacy and long-term effectiveness of neridronic acid of 400 mg. Average, worst (both with a 24-hour recall period) and current pain intensity was measured at the trial visits using an 11-point numerical rating scale on a tablet computer.
The trial included an enrollment period lasting up to 60 days, a treatment period consisting of 4 infusions of neridronic acid over 10 days, and a follow-up period of approximately 50 weeks. […]

## NCCCCCC(O)(P(=O)(O)O)P(=O)(O)O [neridronic acid]
  mean (standard deviation) change from baseline to Day 84 in average pain intensity (NRS): −1.22 (2.197)
